Molecules are shown by their SMILES.

T1 sequence (P53779 40-402): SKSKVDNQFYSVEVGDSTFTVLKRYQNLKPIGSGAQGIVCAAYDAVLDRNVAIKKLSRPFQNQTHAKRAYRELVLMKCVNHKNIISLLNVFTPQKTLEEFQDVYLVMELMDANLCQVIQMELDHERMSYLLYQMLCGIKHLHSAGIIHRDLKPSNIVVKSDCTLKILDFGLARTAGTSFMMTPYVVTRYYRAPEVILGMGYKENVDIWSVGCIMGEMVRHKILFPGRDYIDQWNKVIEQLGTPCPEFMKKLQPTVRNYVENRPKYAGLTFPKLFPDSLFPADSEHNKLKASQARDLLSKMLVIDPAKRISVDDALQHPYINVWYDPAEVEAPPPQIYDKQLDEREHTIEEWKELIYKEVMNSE

This assay addresses T1, JNK3 (Homo sapiens, UniProt P53779).
T1 construct: One such construct encodes amino acid residues Ser40-Glu402 of JNK3α1 and is preceded by Met and Gly residues; Met-Gly dipeptide (initiation Met plus Gly added for the NcoI site) (N); made in house; host or cells: E. coli BL21 (DE3)
Briefly: JNK inhibition assay (spectrophotometric coupled-enzyme assay). Type of assay: biochemical. To be noted: activated JNK3 10 nM, 10 μM ATP, 30° C.; read-out: JNK3 Activity (Ki rating). From the text: A BLAST search of the EST database using the published JNK3α1 cDNA as a query identified an EST clone (#632588) that contained the entire coding sequence for human JNK3α1. Polymerase chain reactions (PCR) using pfu polymerase (Strategene) were used to introduce restriction sites into the cDNA for cloning into the pET-15B expression vector at the NcoI and BamHI sites. The protein was expressed in E. coli. Due to the poor solubility of the expressed full-length protein (Met 1-Gln 422), an N-terminally truncated protein starting at Ser residue at position 40 (Ser 40) was produced. This truncation corresponds to Ser 2 of JNK1 and JNK2 proteins, and is preceded by a methionine (initiation) and a glycine residue. The glycine residue was added in order to introduce an NcoI site for cloning into the expression vector. In addition, systematic C-terminal truncations were performed by PCR to identify a construct that give rise to diffraction-quality crystals. One such construct encodes amino acid residues Ser40-Glu402 of JNK3α1 and is preceded by Met and Gly residues.
Five mg of JNK3 was diluted to 0.5 mg/ml in 50 mM HEPES buffer, pH 7.5, containing 100 mM NaCl, 5 mM DTT, 20 mM MgCl2 and 1 mM ATP. GST-MKK7(DD) was added at a molar ratio of 1:2.5 GST-MKK7:JNK3. After incubation for 30 minutes at 25° C., the reaction mixture was concentrated 5-fold by ultrafiltration in a Centriprep-30 (Amicon, Beverly, Mass.), diluted to 10 ml and an additional 1 mM ATP added. This procedure was repeated three times to remove ADP and replenish ATP. The final addition of ATP was 5 mM and the mixture incubated overnight at 4° C.
The activated JNK3/GST-MKK7(DD) reaction mixture was exchanged into 50 mM HEPES buffer, pH 7.5, containing 5 mM DTT and 5% glycerol (w/v) by dialysis or ultrafiltration. The reaction mixture was adjusted to 1.1 M potassium phosphate, pH 7.5, and purified by hydrophobic interaction chromatography (at 25° C.) using a Rainin Hydropore column. […] Activated JNK3 (i.e. doubly phosphorylated JNK3) was stored at −70° C. at 0.25-1 mg/ml.
Compounds were assayed for the inhibition of JNK3 by a spectrophotometric coupled-enzyme assay. In this assay, a fixed concentration of activated JNK3 (10 nM) was incubated with various concentrations of a potential inhibitor dissolved in DMSO for 10 minutes at 30° C. in a buffer containing 0.1 M HEPES buffer, pH 7.5, containing 10 mM MgCl2, 2.5 mM phosphoenolpyruvate, 200 μM NADH, 150 μg/mL pyruvate kinase, 50 μg/mL lactate dehydrogenase, and 200 μM EGF receptor peptide. The EGF receptor peptide has the sequence […] (SEQ ID NO: 3), and is a phosphoryl acceptor in the JNK3-catalyzed kinase reaction. The reaction was initiated by the addition of 10 μM ATP and the assay plate is inserted into the spectrophotometer's assay plate compartment that was maintained at 30° C. The decrease of absorbance at 340 nm was monitored as a function of time. The rate data as a function of inhibitor concentration was fitted to competitive inhibition kinetic model to determine the Ki.
The compound numbers correspond to the compound numbers in Tables 1-3.
`COCn1c(-c2ccnc(Nc3ccc(F)cc3)n2)cnc1-c1ccccc1` [IIa-11]: the Ki is greater than 1 µM.

For the compound `COCn1c(-c2ccnc(Nc3ccccc3)n2)cnc1-c1ccccc1` [IIa-12], the inhibition constant Ki was greater than 1 µM.

As for `COCn1c(-c2ccnc(Nc3ccc([N+](=O)[O-])cc3)n2)cnc1-c1ccccc1` [IIa-13], the Ki was greater than 1 µM.

`COCn1c(-c2ccnc(Nc3cc(OC)cc(OC)c3)n2)cnc1-c1ccccc1` [IIa-15]: the Ki is greater than 1 µM.

In the case of `COCn1c(-c2ccnc(Nc3cccc(Br)c3)n2)cnc1-c1ccccc1` [IIa-16], the Ki was greater than 1 µM.

`COCn1c(-c2ccnc(Nc3cccc(OCc4ccccc4)c3)n2)cnc1-c1ccccc1` [IIa-17]: the inhibition constant (Ki) is greater than 1 µM.

In the case of `COc1cccc(Nc2nccc(-c3cnc(-c4cccnc4)n3C)n2)c1` [IIa-18], the inhibition constant (Ki) lay in the range of 0.1 to 1 µM.

Regarding `COc1cc(Nc2nccc(-c3cnc(-c4cccnc4)n3C)n2)cc(OC)c1` [IIa-19], the Ki is 0.1 to 1 µM.

Turning to `Cn1c(-c2ccnc(Nc3cccc(Br)c3)n2)cnc1-c1cccnc1` [IIa-20], the Ki was in the range of 0.1 to 1 µM.

As to `Cn1c(-c2ccnc(Nc3ccc([N+](=O)[O-])cc3)n2)cnc1-c1cccnc1` [IIa-21], the inhibitory constant (Ki) was in the range of 0.1 to 1 µM.

As to `COC(=O)c1cccc(Nc2nccc(-c3cnc(-c4cccnc4)n3C)n2)c1` [IIa-22], the inhibition constant Ki was in the range of 0.1 to 1 µM.

For `Clc1ccc(Nc2nccc(-c3cnc(Cc4c(Cl)cccc4Cl)[nH]3)n2)cc1` [IIa-23], the Ki was 0.1 to 1 µM.

For `COc1cccc(Nc2nccc(-c3cnc(Cc4c(Cl)cccc4Cl)[nH]3)n2)c1` [IIa-25], the Ki is less than 0.1 µM.

As to `COc1cc(Nc2nccc(-c3cnc(Cc4c(Cl)cccc4Cl)[nH]3)n2)cc(OC)c1` [IIa-26], the inhibition constant Ki lay within 0.1 to 1 µM.

For `Clc1cccc(Cl)c1Cc1ncc(-c2ccnc(Nc3cccc(Br)c3)n2)[nH]1` [IIa-27], the Ki lay within 0.1 to 1 µM.

On to `Clc1cccc(Cl)c1Cc1ncc(-c2ccnc(Nc3ccccc3)n2)[nH]1` [IIa-28], for which the Ki was in the range of 0.1 to 1 µM.

As for `Clc1cccc(Cl)c1Cc1ncc(-c2ccnc(Nc3cccc(OCc4ccccc4)c3)n2)[nH]1` [IIa-29], the Ki lay in the range of 0.1 to 1 µM.

For `O=[N+]([O-])c1ccc(Nc2nccc(-c3cnc(Cc4c(Cl)cccc4Cl)[nH]3)n2)cc1` [IIa-30], the inhibition constant Ki fell in the range of 0.1 to 1 µM.

Take `COC(=O)c1cccc(Nc2nccc(-c3cnc(Cc4c(Cl)cccc4Cl)[nH]3)n2)c1` [IIa-31]: the Ki lay within 0.1 to 1 µM.

On to `Clc1ccc(Nc2nccc(-c3cnc(Cc4c(Cl)cccc4Cl)[nH]3)n2)cn1` [IIa-32], for which the Ki is 0.1 to 1 µM.

With `Clc1ccc(Nc2nccc(-c3cnc(-c4ccccc4)o3)n2)cc1` [IIb-1, (4-Chloro-phenyl)-[4-(2-phenyl-oxazol-5-yl)-pyrimidin-2yl]-amine], the Ki is greater than 1 µM.

As for `Fc1ccc(Nc2nccc(-c3cnc(-c4ccccc4)o3)n2)cc1` [IIb-2], the inhibition constant Ki was 0.1 to 1 µM.

Regarding `COc1cccc(Nc2nccc(-c3cnc(-c4ccccc4)o3)n2)c1` [IIb-3], the Ki is 0.1 to 1 µM.

Turning to `COc1cc(Nc2nccc(-c3cnc(-c4ccccc4)o3)n2)cc(OC)c1` [IIb-4], the inhibitory constant (Ki) was 0.1 to 1 µM.

For the compound `c1ccc(Nc2nccc(-c3cnc(-c4ccccc4)o3)n2)cc1` [IIb-5], the Ki lay within 0.1 to 1 µM.

Regarding `c1ccc(COc2cccc(Nc3nccc(-c4cnc(-c5ccccc5)o4)n3)c2)cc1` [IIb-6], the Ki was 0.1 to 1 µM.

As for `O=[N+]([O-])c1ccc(Nc2nccc(-c3cnc(-c4ccccc4)o3)n2)cc1` [IIb-7], the Ki was in the range of 0.1 to 1 µM.

For `Cc1nc(-c2cccs2)sc1-c1ccnc(Nc2ccc(Cl)cc2)n1` [IIc-24], the Ki was greater than 1 µM.

Consider `Cc1nc(-c2cccs2)sc1-c1ccnc(Nc2ccc([N+](=O)[O-])cc2)n1` [IIc-25], for which the Ki was greater than 1 µM.

What is called Ki is a dissociation constant, usually derived from enzyme kinetics or from competition with a known ligand.

(Values after patent US7361665B2, “Inhibitors of c-Jun N-terminal kinases (JNK) and other protein kinases” (Vertex Pharmaceuticals Incorporated, priority 2002, dated 2008).)
